From patent US20260184687A1, “DIHYDROINDENE DERIVATIVES AS MALT1 INHIBITORS” (C4X Discovery Limited, priority 2022, published 2026)

Columns and labels:
[1] = system: IL-2 release from stimulated Jurkat cells; test: Human IL-2 Release Phenotypic Assay (Assay 3); assay type: cell-based; settings: Jurkat cells (clone E6-1), 200 ng/mL PMA + 300 ng/mL ionomycin, IL-2 by ELISA
Experimental: This assay measured the inhibition by MALT1 inhibitors of the IL-2 release from stimulated Jurkat cells, a human immortalized T lymphocyte cell line. IL-2 production from Jurkat cells is regulated by activation of NFκB signalling, which is in turn regulated by MALT1 protease activity.
Jurkat cells (clone E6-1, ATCC) were cultured in RPMI1640 supplemented with 10% (v/v) FBS and 1% (v/v) penicillin/streptomycin (100× liquid stocks). Cells were seeded in 96-well white tissue culture-treated plates (Perkin Elmer) at 50 000 cells/well and incubated overnight at 37° C., 5% CO2. Test compounds in DMSO at half-log dilutions were added to the cells and incubated for 30 mins. Final DMSO concentration was 0.5%. Cells were then stimulated with 200 ng/mL PMA+300 ng/mL ionomycin and incubated for 48 hours. […] IC50 values were calculated using GraphPad Prism using 4-parameter non-linear regression curve fit.

FL hMALT1 enzyme = biological target: T1, FL hMALT1 enzyme (Homo sapiens, UniProt Q9UDY8); test: biochemical;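 note: Cell-free protease assay: enzyme preincubated with compound 30 min at room temperature, then cleavage of fluorogenic Ac-LVSR-AMC substrate (100 µM) tracked by fluorescence (ex 360/em 460 nm)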
T1 sequence (Q9UDY8 1-824): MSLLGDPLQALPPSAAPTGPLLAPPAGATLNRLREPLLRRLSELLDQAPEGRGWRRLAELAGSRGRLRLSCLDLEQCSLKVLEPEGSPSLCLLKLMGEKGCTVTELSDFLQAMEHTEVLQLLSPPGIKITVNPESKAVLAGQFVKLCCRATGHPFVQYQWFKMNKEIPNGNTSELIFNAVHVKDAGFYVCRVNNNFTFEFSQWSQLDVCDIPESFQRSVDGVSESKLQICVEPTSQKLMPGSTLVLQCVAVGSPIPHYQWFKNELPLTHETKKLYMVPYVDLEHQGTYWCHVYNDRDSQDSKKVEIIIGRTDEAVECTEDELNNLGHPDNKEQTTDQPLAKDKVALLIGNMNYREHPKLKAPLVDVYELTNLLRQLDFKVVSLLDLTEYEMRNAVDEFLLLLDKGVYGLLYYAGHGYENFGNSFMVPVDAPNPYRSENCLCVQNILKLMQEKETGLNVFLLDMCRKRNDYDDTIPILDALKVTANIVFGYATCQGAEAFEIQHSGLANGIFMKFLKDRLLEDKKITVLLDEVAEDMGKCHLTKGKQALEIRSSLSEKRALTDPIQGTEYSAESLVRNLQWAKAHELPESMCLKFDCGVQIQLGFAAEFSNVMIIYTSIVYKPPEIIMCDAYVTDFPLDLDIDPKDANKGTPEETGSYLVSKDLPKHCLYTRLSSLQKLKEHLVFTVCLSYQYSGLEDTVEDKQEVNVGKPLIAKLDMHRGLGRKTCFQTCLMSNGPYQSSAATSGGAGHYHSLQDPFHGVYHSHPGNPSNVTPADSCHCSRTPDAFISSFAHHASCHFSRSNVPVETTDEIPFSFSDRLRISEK

Row | SMILES | IC50 ([1]; Homo sapiens, Jurkat, 48 h) | IC50 (FL hMALT1 enzyme) | IC50 ([1]; 48 hours)
1 | CN(C(=O)C1CC2(CCC(=O)N2)C1)[C@@H](c1ccc(NC2Cc3ccc(Cl)c(Cl)c3C2)cn1)C(F)(F)F (single isomer, unassigned) [Example 343] |  | 0.077 µM | 0.36 µM
2 | CN(C(=O)C1CNC(=O)O1)[C@@H](c1ccc(N[C@@H]2Cc3ccccc3C2(C)C)cn1)C(F)(F)F (single isomer, unassigned) [Example 109] |  | 0.76 µM | 0.9 µM
3 | CN1CCC(C(=O)N(C)[C@@H](c2ccc(NC3Cc4ccccc4C3(C)C)cn2)C(F)(F)F)CC1 (single isomer, unassigned) [Example 133] |  | 0.15 µM | 0.6 µM
4 | CN(C(=O)C1CNC(=O)O1)[C@@H](c1ccc(N[C@@H]2Cc3ccccc3C2(C)C)cn1)C(F)(F)F (single isomer, unassigned) [Example 108] |  | 0.15 µM | 0.9 µM
5 | COCCN1CCC12CC(C(=O)N(C)[C@@H](c1ccc(NC3Cc4ccccc4C3(C)C)cn1)C(F)(F)F)C2 (single isomer, unassigned) [Example 243] | 0.64 µM | 0.086 µM | 
6 | CN1CCC(C(=O)N(C)[C@@H](c2ccc(NC3Cc4ccccc4C3(C)C)nc2)C(F)(F)F)CC1 (single isomer, unassigned) [Example 144] | 2.63 µM | 0.21 µM | 
7 | CN(C(=O)C1CCC(=O)NC1)[C@@H](c1ccc(NC2Cc3ccccc3C2(C)C)cn1)C(F)(F)F (single isomer, unassigned) [Example 106] |  | 0.13 µM | 0.54 µM
8 | CN(C(=O)C1C2CS(=O)(=O)CC21)[C@@H](c1ccc(NC2Cc3ccccc3C2(C)C)cn1)C(F)(F)F (single isomer, unassigned) [Example 215] |  | 0.088 µM | 0.63 µM
9 | CN(C(=O)C1CCCNC1)[C@@H](c1ccc(NC2Cc3ccccc3C2(C)C)cn1)C(F)(F)F (single isomer, unassigned) [Example 126] |  | 0.12 µM | 0.7 µM
10 | CN(C(=O)C1CCS(=O)(=O)CC1)[C@@H](c1ccc(NC2Cc3ccc(F)c(F)c3C2)cn1)C(F)(F)F (single isomer, unassigned) [Example 261] |  | 0.082 µM | 1.41 µM
11 | CN(C(=O)C1CN(C(=O)C2COC2)C1)[C@@H](c1ccc(NC2Cc3ccc(Cl)c(F)c3C2)cn1)C(F)(F)F (single isomer, unassigned) [Example 371] | 0.22 µM | 0.075 µM | 
12 | CCc1cccc2c1CC(Nc1ccc([C@H](N(C)C(=O)C3CCS(=O)(=O)CC3)C(F)(F)F)nc1)C2 (single isomer, unassigned) [Example 198] | 1.2 µM | 0.078 µM | 
13 | CN(C(=O)N1CCS(=O)(=O)CC1)[C@@H](c1ccc(NC2Cc3ccccc3C2(C)C)cn1)C(F)(F)F (single isomer, unassigned) [Example 142] | 1.79 µM | 0.2 µM | 
14 | CN(C(=O)[C@@H]1CC(=O)N1)[C@@H](c1ccc(N[C@H]2Cc3ccccc3C2(C)C)cn1)C(F)(F)F [Example 165, (S)—N—((S)-1-(5-(((S)-1,1-Dimethyl-2,3-dihydro-1H-inden-2-yl)amino)pyridin-2-yl)-2,2,2-trifluoroethyl)-N-methyl-4-oxoazetidine-2-carboxamide] | 0.45 µM | 0.087 µM | 
15 | CN(C(=O)C1CCNCC1)[C@@H](c1ccc(NC2Cc3ccccc3C2(C)C)cn1)C(F)(F)F (single isomer, unassigned) [Example 146] | 0.48 µM | 0.11 µM | 

Compounds with a lower IC50 (FL hMALT1 enzyme), results first:

Row | IC50 ([1]; Homo sapiens, Jurkat, 48 h) | IC50 (FL hMALT1 enzyme) | IC50 ([1]; 48 hours) | SMILES
16 |  | 0.068 µM | 0.51 µM | CN(C(=O)C1CCNC(=O)C1)[C@@H](c1ccc(NC2Cc3ccccc3C2(C)C)cn1)C(F)(F)F (single isomer, unassigned) [Example 116]
17 |  | 0.063 µM | 0.52 µM | CN1C(=O)CCC1C(=O)N(C)[C@@H](c1ccc(N[C@H]2Cc3ccccc3C2(C)C)cn1)C(F)(F)F (single isomer, unassigned) [Example 225]
18 | 1 µM | 0.06 µM |  | CC(=O)N1CCC12CC(C(=O)N(C)[C@@H](c1ccc(NC3Cc4ccccc4C3(C)C)cn1)C(F)(F)F)C2 (single isomer, unassigned) [Example 235]
19 |  | 0.055 µM | 0.25 µM | CN(C(=O)C1CCS(=O)(=O)C1)[C@@H](c1ccc(NC2Cc3ccc(Cl)c(Cl)c3C2)cn1)C(F)(F)F (single isomer, unassigned) [Example 358]
20 | 0.35 µM | 0.05 µM |  | CN(C(=O)C1CC2(CCN2CCO)C1)[C@@H](c1ccc(NC2Cc3ccccc3C2(C)C)cn1)C(F)(F)F (single isomer, unassigned) [Example 249]
21 |  | 0.049 µM | 0.28 µM | CN(C(=O)C1CCNC(=O)C1)[C@@H](c1ccc(NC2Cc3ccccc3C2(C)C)cn1)C(F)(F)F (single isomer, unassigned) [Example 118]
22 |  | 0.047 µM | 0.65 µM | CCN(C(=O)C1CCS(=O)(=O)CC1)[C@@H](c1ccc(NC2Cc3ccccc3C2(C)C)cn1)C(F)(F)F (single isomer, unassigned) [Example 188]
23 | 0.11 µM | 0.046 µM |  | CN(C(=O)C1CN(C(=O)C2CCOC2)C1)[C@@H](c1ccc(NC2Cc3ccc(Cl)c(Cl)c3C2)cn1)C(F)(F)F (single isomer, unassigned) [Example 352]
24 |  | 0.036 µM | 0.23 µM | CN(C(=O)C1CCC(=O)NC1)[C@@H](c1ccc(NC2Cc3ccccc3C2(C)C)cn1)C(F)(F)F (single isomer, unassigned) [Example 105]
25 |  | 0.036 µM | 0.31 µM | CN(C(=O)C1CNC(=O)CO1)[C@@H](c1ccc(NC2Cc3ccccc3C2(C)C)cn1)C(F)(F)F (single isomer, unassigned) [Example 136]
26 | 0.74 µM | 0.026 µM |  | CN(C(=O)C1CCS(=O)(=O)CC1)[C@@H](c1ccc(NC2Cc3cccc(C(F)(F)F)c3C2)cn1)C(F)(F)F (single isomer, unassigned) [Example 191]
27 | 0.086 µM | 0.025 µM |  | CN(C(=O)[C@H]1CCC(=O)NC1)[C@@H](c1ccc(NC2Cc3ccc(Cl)c(Cl)c3C2)cn1)C(F)(F)F (single isomer, unassigned) [Example 321]
28 | 0.066 µM | 0.024 µM |  | CN(C(=O)[C@H]1CNC(=O)C1)[C@@H](c1ccc(NC2Cc3ccc(Cl)c(F)c3C2)nc1)C(F)(F)F (single isomer, unassigned) [Example 339]
29 | 0.066 µM | 0.024 µM |  | CN(C(=O)[C@@H]1CNC(=O)C1)[C@@H](c1ccc(NC2Cc3ccc(Cl)c(Cl)c3C2)cn1)C(F)(F)F (single isomer, unassigned) [Example 319]
30 |  | 0.018 µM | 0.099 µM | CNC(=O)N1CC(C(=O)N(C)[C@@H](c2ccc(NC3Cc4ccccc4C3(C)C)cn2)C(F)(F)F)C1 (single isomer, unassigned) [Example 227]
31 |  | 0.015 µM | 0.1 µM | CN(C(=O)C1CC2(CCC(=O)N2)C1)[C@@H](c1ccc(NC2Cc3ccc(Cl)c(Cl)c3C2)cn1)C(F)(F)F (single isomer, unassigned) [Example 341]
32 | 0.096 µM | 0.015 µM |  | CN(C(=O)C1CCS(=O)(=O)CC1)[C@@H](c1ccc(NC2Cc3ccc(Cl)c(Cl)c3C2)cn1)C(F)(F)F (single isomer, unassigned) [Example 279]
33 | 0.042 µM | 0.014 µM |  | CNC(=O)N1CC(C(=O)N(C)[C@@H](c2ccc(NC3Cc4ccc(Cl)c(Cl)c4C3)cn2)C(F)(F)F)C1 (single isomer, unassigned) [Example 335]
34 | 0.047 µM | 0.014 µM |  | CN(C(=O)C1CCS(=O)(=O)CC1)[C@@H](c1ccc(NC2Cc3ccc(Cl)c(F)c3C2)nc1)C(F)(F)F (single isomer, unassigned) [Example 332]
35 | 0.1 µM | 0.014 µM |  | CN(C(=O)C12CC(NS(C)(=O)=O)(C1)C2)[C@@H](c1ccc(NC2Cc3ccc(Cl)c(Cl)c3C2)cn1)C(F)(F)F (single isomer, unassigned) [Example 323]
36 | 0.035 µM | 0.009 µM |  | CN(C(=O)C1CCN(S(C)(=O)=O)CC1)[C@@H](c1ccc(NC2Cc3ccc(Cl)c(Cl)c3C2)cn1)C(F)(F)F (single isomer, unassigned) [Example 325]
